Results: patent publication US20170036969A1, “NITRIFICATION INHIBITORS” (BASF SE, priority 2014, published 2017)

tested on: nitrification in soil sampled fresh from a field (e.g. Limburgerhof); assay: Soil nitrification inhibition test (48 well plate, ammonium sulfate + NaClO3, colour reaction read at 540 nm); conditions: dose of 10 ppm, room temperature, up to 72 hrs
Protocol: Soil was sampled fresh from a field (e.g. Limburgerhof), dried and sieved through a 500 μm sieve. Approximately 200 mg of soil were placed into each well of a 48 well plate. Compounds, or DMSO alone, were added at a concentration of 10 ppm, dissolved in 1% DMSO. 6 μmol ammonium sulfate was added per well as well as 4.8 mg NaClO3.
Subsequently, the samples were incubated at room temperature for up to 72 hrs. After the incubation period 64 mg KCl were added and mixed. 25 μl of the supernatant were placed into a fresh plate and 260 μl of a color reaction solution (from Merck Nr 1.11799.0100) were added.
Measurements were taken with a Tecan plate Reader at 540 nm wavelength.
The inhibition in % is calculated by the equation [(a−b)/a]×100, wherein a is the nitrification rate in the presence of the control (which is assumed to be 100%), and b is the nitrification rate in the presence of the tested compound.

Row | SMILES | Rating (inhibition; best rating obtained for a compound)
1 | C#CCOc1cc(NC(=S)N(N)CCO)c(F)cc1Cl | 56%
2 | C#CCOc1ccc(Cl)cc1 | 59%
3 | C#CCOc1ccc(OCC#C)cc1 | 66%
4 | C#CCOc1cc(NC=O)c(F)cc1Cl | 48%
5 | C#CCOc1cccc(C(O)C#C)c1 (stereo not shown) | 61%
6 | C#CCOc1ccc(C#N)cc1 | 53%
7 | C#CCOc1ccc(OC)cc1 | 58%
8 | C#CCOc1ccc(C(=O)N2CCOCC2)cc1 | 57%
9 | C#CCOc1ccc(NC(=O)N(C)C)cc1Cl | 55%
10 | C#CCOc1cc(N)c(F)cc1Cl | 62%
